Reference: publication PMC5433425 (PeerJ, 2017)
Where “and” joins values, the source holds several entries; their conditions need not be identical. Equal entries are not always repeated.

Experiments:
[1] = tested on: human monocyte-derived macrophages; assay: Cytotoxicity, AlamarBlue method; format: cell-based; settings: human, 3 days
Experimental: (§1) The blood was collected from healthy donors and the peripheral blood mononuclear cells were isolated by Ficoll-Paque Plus (GE Healthcare, Freiburg, Germany) density gradient centrifugation as previously described ([Machado et al., 2016]). […] Fresh medium was added at day 4 post isolation. The effect of the compounds on human monocyte-derived macrophages was evaluated using the AlamarBlue method (Molecular Probes, Life Technologies) ([O’Brien et al., 2000]), and by measuring the release of the lactate dehydrogenase (LDH) into the culture supernatants using the Pierce LDH Cytotoxicity Assay (ThermoFisher Scientific, Waltham, MA, USA) ([Chan, Moriwaki & Rosa, 2013]) according to the manufacturer’s instructions. Briefly, 5 × 10^4 cells were seeded in 96-well microplates treated with the compounds, and incubated at 37 °C with 5% CO2. After 72 h of treatment, the cell viability was assessed. For the AlamarBlue method, the dye was added to each well to a final concentration of 10% and incubated overnight at 37 °C and 5% CO2. The fluorescence was measured with a 540/35 excitation filter and a 590/20 emission filter in a Synergy HT multi-mode microplate reader. The release of LDH from damaged cells into culture supernatants, as an indicator of cytotoxicity, was measured in serum-free medium. Here the amount of enzyme activity correlates to the number of damaged cells. The specific lysis was calculated as follows: (treated cells—spontaneous LDH release)/ (maximum LDH release—spontaneous LDH release) ×100.

[2] = tested on: human monocyte-derived macrophages; assay: Cytotoxicity, LDH release; format: cell-based; settings: human, 3 days
Experimental: as §1

[3] = tested on: E. coli K-12 AG100 (wild-type); assay: MIC, broth microdilution; format: cell-based; settings: Escherichia coli; E. coli AG100 wild-type; read-out: MIC
E. coli AG100A = assay: EtBr efflux by real-time fluorometry; settings: 20 µM
Experimental: (§2) Control tubes with only cells and cells with and without 0.4% glucose were included. The fluorescence was measured in a Rotor-Gene 3000 and the data was acquired every 30 s for 30 min at 37 °C. The efflux activity was quantified by comparing the fluorescence data obtained under conditions that promote efflux (presence of glucose and absence of efflux inhibitor) with the data from the control in which the bacteria are under conditions of no efflux (presence of an inhibitor and no energy source).

E. coli AG100 = assay: EtBr efflux by real-time fluorometry; settings: AG100, AG100A and AG100tet (Fig. 2); 80 μM (20 μM for AG100A); glucose, 37 °C
Experimental: as §2

CN(C)CCCN1c2ccccc2Sc2ccc(Cl)cc21 [CPZ, chlorpromazine]
CC10 [1]: 13.36 µM
LDH release ([2]; 1.25 µM): 0.95%
LDH release ([2]; 20 µM): 24%
MIC [3]: 120 µg/mL and 338 µM
EtBr fluorescence (Channel Cycling A.530/585hp) (E. coli AG100A; cycle 1, + glucose): 3.827
EtBr fluorescence (Channel Cycling A.530/585hp) (E. coli AG100A; cycle 1, without glucose): 4.231
EtBr fluorescence (Channel Cycling A.530/585hp) (E. coli AG100A; cycle 2, + glucose): 3.676
EtBr fluorescence (Channel Cycling A.530/585hp) (E. coli AG100A; cycle 2, without glucose): 4.204
EtBr fluorescence (Channel Cycling A.530/585hp) (E. coli AG100A; cycle 3, + glucose): 3.648
EtBr fluorescence (Channel Cycling A.530/585hp) (E. coli AG100A; cycle 3, without glucose): 4.237
EtBr fluorescence (Channel Cycling A.530/585hp) (E. coli AG100A; cycle 4, without glucose): 4.314
EtBr fluorescence (Channel Cycling A.530/585hp) (E. coli AG100A; cycle 5, without glucose): 4.267
EtBr fluorescence (Channel Cycling A.530/585hp) (E. coli AG100A; cycle 6, without glucose): 4.36
EtBr fluorescence (Channel Cycling A.530/585hp) (E. coli AG100A; cycle 7, without glucose): 4.4
EtBr fluorescence (Channel Cycling A.530/585hp) (E. coli AG100A; cycle 8, without glucose): 4.486
EtBr fluorescence (Channel Cycling A.530/585hp) (E. coli AG100A; cycle 9, + glucose): 3.606
EtBr fluorescence (Channel Cycling A.530/585hp) (E. coli AG100A; cycle 9, without glucose): 4.551
EtBr fluorescence (Channel Cycling A.530/585hp) (E. coli AG100A; cycle 10, + glucose): 3.712
EtBr fluorescence (Channel Cycling A.530/585hp) (E. coli AG100A; cycle 10, without glucose): 4.522
EtBr fluorescence (Channel Cycling A.530/585hp) (E. coli AG100A; cycle 11, + glucose): 3.667
EtBr fluorescence (Channel Cycling A.530/585hp) (E. coli AG100A; cycle 11, without glucose): 4.614
EtBr fluorescence (Channel Cycling A.530/585hp) (E. coli AG100A; cycle 12, + glucose): 3.687
EtBr fluorescence (Channel Cycling A.530/585hp) (E. coli AG100A; cycle 12, without glucose): 4.652
EtBr fluorescence (Channel Cycling A.530/585hp) (E. coli AG100A; cycle 13, + glucose): 3.761
EtBr fluorescence (Channel Cycling A.530/585hp) (E. coli AG100A; cycle 13, without glucose): 4.775
EtBr fluorescence (Channel Cycling A.530/585hp) (E. coli AG100A; cycle 14, + glucose): 3.711
EtBr fluorescence (Channel Cycling A.530/585hp) (E. coli AG100A; cycle 14, without glucose): 4.879
EtBr fluorescence (Channel Cycling A.530/585hp) (E. coli AG100A; cycle 15, + glucose): 3.685
EtBr fluorescence (Channel Cycling A.530/585hp) (E. coli AG100A; cycle 15, without glucose): 4.89
EtBr fluorescence (Channel Cycling A.530/585hp) (E. coli AG100A; cycle 16, + glucose): 3.729
EtBr fluorescence (Channel Cycling A.530/585hp) (E. coli AG100A; cycle 16, without glucose): 4.933
EtBr fluorescence (Channel Cycling A.530/585hp) (E. coli AG100A; cycle 17, + glucose): 3.749
EtBr fluorescence (Channel Cycling A.530/585hp) (E. coli AG100A; cycle 17, without glucose): 4.963
EtBr fluorescence (Channel Cycling A.530/585hp) (E. coli AG100A; cycle 18, + glucose): 3.817
EtBr fluorescence (Channel Cycling A.530/585hp) (E. coli AG100A; cycle 18, without glucose): 5.023
EtBr fluorescence (Channel Cycling A.530/585hp) (E. coli AG100A; cycle 19, + glucose): 3.768
EtBr fluorescence (Channel Cycling A.530/585hp) (E. coli AG100A; cycle 19, without glucose): 5.067
EtBr fluorescence (Channel Cycling A.530/585hp) (E. coli AG100A; cycle 20, + glucose): 3.821
EtBr fluorescence (Channel Cycling A.530/585hp) (E. coli AG100A; cycle 20, without glucose): 5.072
EtBr fluorescence (Channel Cycling A.530/585hp) (E. coli AG100A; cycle 21, + glucose): 3.796
EtBr fluorescence (Channel Cycling A.530/585hp) (E. coli AG100A; cycle 21, without glucose): 5.224
EtBr fluorescence (Channel Cycling A.530/585hp) (E. coli AG100A; cycle 22, + glucose): 3.843
EtBr fluorescence (Channel Cycling A.530/585hp) (E. coli AG100A; cycle 22, without glucose): 5.19
EtBr fluorescence (Channel Cycling A.530/585hp) (E. coli AG100A; cycle 23, + glucose): 3.825
EtBr fluorescence (Channel Cycling A.530/585hp) (E. coli AG100A; cycle 23, without glucose): 5.293
EtBr fluorescence (Channel Cycling A.530/585hp) (E. coli AG100A; cycle 24, + glucose): 3.796
EtBr fluorescence (Channel Cycling A.530/585hp) (E. coli AG100A; cycle 24, without glucose): 5.381
EtBr fluorescence (Channel Cycling A.530/585hp) (E. coli AG100A; cycle 25, + glucose): 3.807
EtBr fluorescence (Channel Cycling A.530/585hp) (E. coli AG100A; cycle 25, without glucose): 5.403
EtBr fluorescence (Channel Cycling A.530/585hp) (E. coli AG100A; cycle 26, + glucose): 3.836
EtBr fluorescence (Channel Cycling A.530/585hp) (E. coli AG100A; cycle 26, without glucose): 5.546
EtBr fluorescence (Channel Cycling A.530/585hp) (E. coli AG100A; cycle 27, + glucose): 3.8908
EtBr fluorescence (Channel Cycling A.530/585hp) (E. coli AG100A; cycle 27, without glucose): 5.462
EtBr fluorescence (Channel Cycling A.530/585hp) (E. coli AG100A; cycle 28, + glucose): 3.846
EtBr fluorescence (Channel Cycling A.530/585hp) (E. coli AG100A; cycle 28, without glucose): 5.551
EtBr fluorescence (Channel Cycling A.530/585hp) (E. coli AG100A; cycle 29, + glucose): 3.901
EtBr fluorescence (Channel Cycling A.530/585hp) (E. coli AG100A; cycle 29, without glucose): 5.7035
EtBr fluorescence (Channel Cycling A.530/585hp) (E. coli AG100A; cycle 30, + glucose): 3.8738
EtBr fluorescence (Channel Cycling A.530/585hp) (E. coli AG100A; cycle 30, without glucose): 5.804
EtBr fluorescence (Channel Cycling A.530/585hp) (E. coli AG100A; cycle 31, + glucose): 3.964
EtBr fluorescence (Channel Cycling A.530/585hp) (E. coli AG100A; cycle 31, without glucose): 5.758
EtBr fluorescence (Channel Cycling A.530/585hp) (E. coli AG100A; cycle 32, + glucose): 3.895
EtBr fluorescence (Channel Cycling A.530/585hp) (E. coli AG100A; cycle 32, without glucose): 5.843
EtBr fluorescence (Channel Cycling A.530/585hp) (E. coli AG100A; cycle 33, + glucose): 3.921
EtBr fluorescence (Channel Cycling A.530/585hp) (E. coli AG100A; cycle 33, without glucose): 5.872
EtBr fluorescence (Channel Cycling A.530/585hp) (E. coli AG100A; cycle 34, + glucose): 3.877
EtBr fluorescence (Channel Cycling A.530/585hp) (E. coli AG100A; cycle 34, without glucose): 5.974
EtBr fluorescence (Channel Cycling A.530/585hp) (E. coli AG100A; cycle 35, + glucose): 3.838
EtBr fluorescence (Channel Cycling A.530/585hp) (E. coli AG100A; cycle 35, without glucose): 6.003
EtBr fluorescence (Channel Cycling A.530/585hp) (E. coli AG100A; cycle 36, + glucose): 3.873
EtBr fluorescence (Channel Cycling A.530/585hp) (E. coli AG100A; cycle 36, without glucose): 6.052
EtBr fluorescence (Channel Cycling A.530/585hp) (E. coli AG100A; cycle 37, + glucose): 3.865
EtBr fluorescence (Channel Cycling A.530/585hp) (E. coli AG100A; cycle 37, without glucose): 6.051
EtBr fluorescence (Channel Cycling A.530/585hp) (E. coli AG100A; cycle 38, + glucose): 3.927
EtBr fluorescence (Channel Cycling A.530/585hp) (E. coli AG100A; cycle 38, without glucose): 6.151
EtBr fluorescence (Channel Cycling A.530/585hp) (E. coli AG100A; cycle 39, + glucose): 3.914
EtBr fluorescence (Channel Cycling A.530/585hp) (E. coli AG100A; cycle 39, without glucose): 6.208
EtBr fluorescence (Channel Cycling A.530/585hp) (E. coli AG100A; cycle 40, + glucose): 4.038
EtBr fluorescence (Channel Cycling A.530/585hp) (E. coli AG100A; cycle 40, without glucose): 6.311
EtBr fluorescence (Channel Cycling A.530/585hp) (E. coli AG100A; cycle 41, + glucose): 3.929
EtBr fluorescence (Channel Cycling A.530/585hp) (E. coli AG100A; cycle 41, without glucose): 6.369
EtBr fluorescence (Channel Cycling A.530/585hp) (E. coli AG100A; cycle 42, + glucose): 3.925
EtBr fluorescence (Channel Cycling A.530/585hp) (E. coli AG100A; cycle 42, without glucose): 6.396
EtBr fluorescence (Channel Cycling A.530/585hp) (E. coli AG100A; cycle 43, + glucose): 3.906
EtBr fluorescence (Channel Cycling A.530/585hp) (E. coli AG100A; cycle 43, without glucose): 6.421
EtBr fluorescence (Channel Cycling A.530/585hp) (E. coli AG100A; cycle 44, + glucose): 3.836
EtBr fluorescence (Channel Cycling A.530/585hp) (E. coli AG100A; cycle 44, without glucose): 6.524
EtBr fluorescence (Channel Cycling A.530/585hp) (E. coli AG100A; cycle 45, without glucose): 6.6507
EtBr fluorescence (Channel Cycling A.530/585hp) (E. coli AG100A; cycle 46, without glucose): 6.69
EtBr fluorescence (Channel Cycling A.530/585hp) (E. coli AG100A; cycle 47, without glucose): 6.633
EtBr fluorescence (Channel Cycling A.530/585hp) (E. coli AG100A; cycle 48, without glucose): 6.748
EtBr fluorescence (Channel Cycling A.530/585hp) (E. coli AG100A; cycle 49, without glucose): 6.869
EtBr fluorescence (Channel Cycling A.530/585hp) (E. coli AG100A; cycle 50, without glucose): 6.908
EtBr fluorescence (Channel Cycling A.530/585hp) (E. coli AG100A; cycle 51, without glucose): 6.927
EtBr fluorescence (Channel Cycling A.530/585hp) (E. coli AG100A; cycle 52, without glucose): 6.871
EtBr fluorescence (Channel Cycling A.530/585hp) (E. coli AG100A; cycle 53, without glucose): 6.976
EtBr fluorescence (Channel Cycling A.530/585hp) (E. coli AG100A; cycle 54, without glucose): 6.9692
EtBr fluorescence (Channel Cycling A.530/585hp) (E. coli AG100A; cycle 55, without glucose): 7.074
EtBr fluorescence (Channel Cycling A.530/585hp) (E. coli AG100A; cycle 56, without glucose): 7.021
EtBr fluorescence (Channel Cycling A.530/585hp) (E. coli AG100A; cycle 57, without glucose): 7.172
EtBr fluorescence (Channel Cycling A.530/585hp) (E. coli AG100A; cycle 58, without glucose): 7.396
EtBr fluorescence (Channel Cycling A.530/585hp) (E. coli AG100A; cycle 59, without glucose): 7.291
EtBr fluorescence (Channel Cycling A.530/585hp) (E. coli AG100A; cycle 60, without glucose): 7.378
EtBr fluorescence (Channel Cycling A.530/585hp) (E. coli AG100A; cycle 61, without glucose): 7.37
inhibition of EtBr efflux (E. coli AG100): inhibited
